The values that follow come from ChEMBL document CHEMBL1201862, “PubChem BioAssay data set” (2004).

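Cells were grown in 96-well plates and exposed to each compound for 48 hours at five concentrations; endpoints were interpolated linearly between bracketing concentrations, or set to the highest concentration if not reached. GI50: concentration for 50% inhibition of growth.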 Active and inactive are the calls of the source. Cut-off read from the data, not from the text of the source: active = GI50 up to about 1.1 µM and inactive = higher. A value given as a limit tells only on which side of the number the result lay.

Test in all cases: NCI-60 cell line screen, 48 h
Test [1] relates to Malme-3M.
Test [2] deals with HCT-15.
Test [3] has as its system CAKI-1.
In test [4] the test system is SK-MEL-2.
The test system of test [5] is COLO 205.
For test [6], the system named is SW-620.
The subject of test [7] is SK-MEL-5.
For test [8], the system named is NCI-H522.
Test [9] deals with SNB-19.
The subject of test [10] is HOP-62.
For test [11], the system named is K562.
In test [12] the test system is SK-OV-3.
For test [13], the system named is TK-10.
For test [14], the system named is RXF 393.
Test [15] concerns ACHN.
The subject of test [16] is OVCAR-3.
Test [17] has as its system NCI-H460.

Consider `COc1ccc(/C=C/C(=O)c2c(-c3ccccc3)nn(C)c(=O)c2N2CC2C)cc1` (centres undefined), for which the GI50 is 35.7 µM (inactive) in test [1]; 24.3 µM in test [2]; 44.5 µM (inactive) in test [3]; 21.8 µM (inactive) in test [4]; 34.3 µM (inactive) in test [5]; 26.4 µM (inactive) in [6]. The GI50 was 29.4 µM (inactive) in test [7]; 22.7 µM (inactive) in test [8]; 37.8 µM (inactive) in test [9]; 35.6 µM (inactive) in test [10]; 26.2 µM (inactive) in test [11]; 30.2 µM (inactive) in test [12]. For the same molecule, the GI50 in test [13] is 41.1 µM (inactive); in test [14], 27.9 µM (inactive); in test [15] it was 36.2 µM (inactive); in test [16], 24.3 µM (inactive); in test [17] it was 27.5 µM (inactive).

On to `COC(=O)C(CCCC1(c2ccccc2)OCCO1)C(C)=O` (centres undefined), for which the GI50 in test [1] is > 100 µM (inactive); in [2], above 100 µM; in test [4], > 100 µM (inactive); in test [5], > 100 µM (inactive); in [6], > 100 µM (inactive); in test [7] it was 66.4 µM (inactive). Moreover, the GI50 in [8] was 64 µM (inactive); in [9] it was > 100 µM (inactive); in test [10], > 100 µM (inactive); in test [11], 91.8 µM (inactive); in test [12], > 100 µM (inactive); in [13], > 100 µM (inactive). Further, the GI50 in test [14] is > 100 µM (inactive); in [15], 38.1 µM (inactive); in test [16], > 100 µM (inactive); in [17], > 100 µM (inactive).

Regarding `C/C=C(/I)CBr`, the GI50 in test [1] is 16 µM (inactive); in [2] it was 18.2 µM; in test [3], 1.07 µM (active); in [4], 14.4 µM (inactive); in [5], 13.2 µM (inactive); in test [6], 13.6 µM (inactive). Moreover, the GI50 in [7] was 15.5 µM (inactive); in [8], 2.03 µM (inactive); in test [9] it was 23.7 µM (inactive); in [10] it was 22.5 µM (inactive); in test [11] it was 5.15 µM (inactive); in [12] it was 30.8 µM (inactive). The GI50 in [13] is > 10 µM (inactive); in [14] it was 17.3 µM (inactive); in test [15], 21.8 µM (inactive); in test [17], 18.9 µM (inactive).

Turning to `COC1OC(C)C(OC(=O)C(C)(C)C)C(C)(O)C1O` (centres undefined), the GI50 in test [1] was > 100 µM (inactive); in [2] it was above 100 µM; in [3], > 100 µM (inactive); in test [5] it was > 100 µM (inactive); in test [6], > 100 µM (inactive); in test [7] it was > 100 µM (inactive). The GI50 in test [8], in test [9], in test [10], in [11], in test [13] and in test [14] was > 100 µM (inactive) each time. Further, the GI50 in [16] and in test [17] was > 100 µM (inactive) throughout.

Consider `CCOC(=O)NC(=O)c1cn(CCN2CCN(C(=O)NCCCCCCNC(=O)N3CCN(CCn4cc(C(=O)NC(=O)OCC)c(=O)[nH]c4=O)CC3)CC2)c(=O)[nH]c1=O`, for which the GI50 is > 100 µM (inactive) in [1]; above 100 µM in [2]; > 100 µM (inactive) in test [4]; > 100 µM (inactive) in test [5]; > 100 µM (inactive) in [6]; > 100 µM (inactive) in [7]. For the same molecule, the GI50 in test [8], in test [9], in [10], in [11], in test [12] and in [13] was > 100 µM (inactive) each time. In addition, the GI50 in [14], in test [15], in test [16] and in [17] was > 100 µM (inactive) throughout.

Take `Cc1nc2c(n1CC(C)C)C(=O)c1ccccc1C2=O`: the GI50 is 20.6 µM (inactive) in test [1]; 37.5 µM in test [2]; 25.5 µM (inactive) in test [4]; 36 µM (inactive) in test [5]; 41.1 µM (inactive) in [6]; 18.8 µM (inactive) in [7]. For the same molecule, the GI50 in [8] is 26.5 µM (inactive); in test [9], 51.5 µM (inactive); in [10], 42.1 µM (inactive); in test [11], 29.9 µM (inactive); in [12], 62.4 µM (inactive); in test [13] it was > 100 µM (inactive). For the same molecule, the GI50 in test [14] was 35.2 µM (inactive); in [15] it was 32.1 µM (inactive); in test [16], 25.4 µM (inactive); in test [17] it was 23.4 µM (inactive).

As to `COC(=O)C(CC(C)=O)CS(=O)(=O)CC(=O)C(=O)Nc1cccc([N+](=O)[O-])c1` (centres undefined), the GI50 was > 100 µM (inactive) in test [1]; above 100 µM in test [2]; > 100 µM (inactive) in [3]; > 100 µM (inactive) in test [4]; > 100 µM (inactive) in test [5]; > 100 µM (inactive) in test [6]. Further, the GI50 in test [7], in test [8], in test [9], in test [10], in test [11] and in [12] was > 100 µM (inactive) in each case. Moreover, the GI50 in test [13], in test [14], in test [15], in test [16] and in test [17] was > 100 µM (inactive) each time.

Regarding `Cc1ccc(C)c(N2C(=O)C(=O)C(c3nc4ccccc4o3)/C(=N/N)C2=O)c1` (centres undefined), the GI50 is > 100 µM (inactive) in [1]; above 100 µM in test [2]; > 100 µM (inactive) in test [3]; > 100 µM (inactive) in [4]; > 100 µM (inactive) in [5]; > 100 µM (inactive) in test [6]. Moreover, the GI50 in [7], in test [8], in test [9], in [10], in test [12] and in test [13] was > 100 µM (inactive) each time. In addition, the GI50 in test [14], in test [15], in test [16] and in [17] was > 100 µM (inactive) each time.

For `COc1ccc(NS(=O)(=O)c2ccc(/N=C3\C=C(Nc4ccc(S(=O)(=O)Nc5ccc(OC)nn5)cc4)C(=O)c4ccccc43)cc2)nn1`, the GI50 in test [1] was 19 µM (inactive); in test [2], 17 µM; in test [3], 22 µM (inactive); in test [4], 16.9 µM (inactive); in test [5], 17.7 µM (inactive); in test [6] it was 18.9 µM (inactive). In addition, the GI50 in test [7] was 20.4 µM (inactive); in [8], 17 µM (inactive); in test [9] it was 18.8 µM (inactive); in test [11] it was 61.1 µM (inactive); in test [12] it was 18.1 µM (inactive); in test [13] it was 21.9 µM (inactive). Further, the GI50 was 18.4 µM (inactive) in [14], 19.1 µM (inactive) in [15], 21 µM (inactive) in test [16] and 17.7 µM (inactive) in [17].
